For one data set, the target named is recombinant human MGAT2 (Homo sapiens (Human), UniProt Q3SYC2). In words: Measurement of human MGAT2 inhibitory activity. The note with it: concentration exhibiting 50% enzyme inhibition; recombinant human MGAT2, 2-Oleoylglycerol/Oleoyl-CoA. It counts as biochemical. The protocol:
A full-length human MGAT2 gene to which a Flag-tag had been added at the N-terminal was inserted into pFastBac (from Invitrogen). A recombinant baculovirus was produced in accordance with the protocol for a Bac-to-Bac baculovirus expression system (produced by Invitrogen), and Sf-9 cells were infected therewith. The cells were collected and sonicated, and then the membrane fraction was collected through centrifugation. Western blotting analysis with an anti-Flag antibody was performed for the membrane fraction to confirm expression, and the membrane fraction was used as a recombinant human MGAT2 enzyme solution.
Solutions of the compounds of the present invention in DMSO were each aliquoted into 0.2-μL portions in a 384-well polystyrene microplate produced by Corning Incorporated, and 5 μL of an enzyme solution prepared with an assay buffer (100 mmol/L phosphate buffer (pH 7.4) containing 2 mmol/L DTT) and 5 μL of a substrate solution (100 mmol/L phosphate buffer (pH 7.4), 30 μmol/L 2-Oleoylglycerol, 10 μmol/L Oleoyl-CoA) were added thereto, and the resultant was stirred and centrifuged, and incubated in a moist chamber at room temperature for 1 hour. After enzymatic reaction, 50 μL of a quenching solution (containing 0.2 μmol/L Diolein-d5, 0.4% formic acid, and 50% isopropanol) containing Internal Standard (IS) was added to terminate the reaction, and the resultant was sealed in a plate produced by Shimadzu GLC Ltd., and then stirred and centrifuged, and measurement was performed by using an electrospray ionization method with a RapidFire360 and Agilent 6550 Q-TOF mass spectrometer. Diolein as a reaction product (P) of 2-Oleoylglycerol as the substrate and an ammonium adduct ion of the IS were detected, and the peak intensity ratio, P/IS, was calculated from the peak heights to evaluate the inhibitory activity. Inhibitory activities with/without addition of enzyme were defined as Control (+)/Control (−), respectively, and the respective % inhibitions were defined as 0% inhibition and 100% inhibition. The inhibitory activity was calculated from formula below with TIBCO Spotfire (produced by TIBCO Software Inc.)
Inhibitory activity (%)=[1−{Sample−Control (−)}/{Control (+)−Control (−)}]*100 where Sample indicates a peak intensity ratio: P/IS, when the compound of the present invention was added.

Data set [1] in a line: Metabolism stability test (human liver microsomes). Format: in vitro ADME. The note with it: compound concentration 0.5 μmol/L, 37° C., 30 minutes, NADPH. On the procedure:
Using commercially available pooled human hepatic microsomes, the compound of the present invention was reacted for a constant time, a remaining rate was calculated by comparing a reacted sample and an unreacted sample, thereby, a degree of metabolism of the compound of the present invention in liver was assessed.
A reaction was performed (oxidative reaction) at 37° C. for 0 minute or 30 minutes in the presence of 1 mmol/L NADPH in 0.2 mL of a buffer (50 mmol/L Tris-HCl pH 7.4, 150 mmol/L potassium chloride, 10 mmol/L magnesium chloride) containing 0.5 mg protein/mL of human liver microsomes. After the reaction, 50 μL of the reaction solution was added to 100 μL of a methanol/acetonitrile=1/1 (v/v) solution, mixed and centrifuged at 3000 rpm for 15 minutes. The compound of the present invention in the supernatant was quantified by LC/MS/MS, and a remaining amount of the compound of the present invention after the reaction was calculated, letting a compound amount at 0 minute reaction time to be 100%.
(In general: Microsomes from liver hold many membrane-bound enzymes, among them those of drug oxidation.)

Chain of recombinant human MGAT2 (Q3SYC2 whole entry): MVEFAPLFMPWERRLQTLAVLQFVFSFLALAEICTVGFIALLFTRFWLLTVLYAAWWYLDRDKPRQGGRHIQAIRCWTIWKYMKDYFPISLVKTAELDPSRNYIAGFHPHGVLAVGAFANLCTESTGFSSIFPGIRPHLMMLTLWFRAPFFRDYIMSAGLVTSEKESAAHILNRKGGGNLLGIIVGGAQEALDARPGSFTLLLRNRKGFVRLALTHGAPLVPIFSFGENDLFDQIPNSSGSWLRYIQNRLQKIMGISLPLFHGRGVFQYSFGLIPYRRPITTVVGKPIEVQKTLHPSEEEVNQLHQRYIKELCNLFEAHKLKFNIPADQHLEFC

The term IC50 denotes the concentration needed to halve the response being measured. For the compound `CS(=O)(=O)CC(=O)Nc1c(-c2ccc(F)cc2)nn2c1C(=O)NC1(CN(c3ccc(C(F)(F)F)cc3)C1)C2` [Compound I-61], the IC50 on recombinant human MGAT2 was 1.41 nM. The Remaining rate in data set [1] is 95.6%.

Take `N#Cc1ccc(-c2nn3c(c2NC(=O)c2ccno2)C(=O)N[C@@]2(CCc4cc(OCC(F)(F)F)ccc42)C3)nc1` [Compound I-13]: the IC50 at recombinant human MGAT2 was 1.93 nM. Further, in data set [1], the Remaining rate is given as 76%.

Turning to `Cc1cccc(-c2nn3c(c2NC(=O)CS(C)(=O)=O)C(=O)N[C@@]2(CCc4cc(OCC(F)(F)F)ccc42)C3)c1` [Compound I-21], on recombinant human MGAT2, the IC50 turned out to be 3.27 nM.

Consider `CS(=O)(=O)CC(=O)Nc1c(-c2ccc(C(F)F)cc2)nn2c1C(=O)N[C@@]1(CCc3cc(F)cc(F)c31)C2` [Compound I-131], for which the half-inhibitory concentration (IC50) at recombinant human MGAT2 stood at 9.33 nM.

In the case of `C[S@](=N)(=O)CC(=O)Nc1c(-c2cc(F)c(F)c(F)c2)nn2c1C(=O)N[C@@]1(CCc3cc(OCC(F)(F)F)ccc31)C2` (single isomer, unassigned) [Compound I-105], the IC50 on recombinant human MGAT2 was 1.71 nM.

Take `C[S@@](=N)(=O)CC(=O)Nc1c(-c2ccc(F)c(Cl)c2)nn2c1C(=O)N[C@@]1(CCc3cc(OCC(F)(F)F)ccc31)C2` (single isomer, unassigned) [Compound I-72]: the IC50 on recombinant human MGAT2 turned out to be 6.43 nM.

For the compound `CS(=O)(=O)CC(=O)Nc1c(-c2ccc(F)cn2)nn2c1C(=O)N[C@]1(CCOc3cc(F)cc(F)c31)C2` [Compound I-150], the IC50 at recombinant human MGAT2 is 11.3 nM.

Consider `Cc1ccc(-c2nn3c(c2NC(=O)CS(C)(=O)=O)C(=O)NC2(CCc4cc(OCc5ccccc5)ccc42)C3)nc1` (stereo not shown) [Compound I-55], for which, on recombinant human MGAT2, the IC50 is 1 nM.

`Cc1ccc(-c2nn3c(c2NC(=O)CS(C)(=O)=O)C(=O)N[C@]2(CCc4cc(OCCCC(F)(F)F)ccc42)C3)nc1` [Compound I-75]: the IC50 at recombinant human MGAT2 was found to be 1.47 nM.

With `CS(=O)(=O)CC(=O)Nc1c(-c2ccc(Cl)c(F)c2)nn2c1C(=O)N[C@@]1(CCc3cc(F)cc(F)c31)C2` [Compound I-138], the IC50 at recombinant human MGAT2 came out at 3.55 nM.

`COc1ccc(-c2nn3c(c2NC(=O)CS(C)(=O)=O)C(=O)N[C@@]2(CCc4cc(OCC(F)(F)F)ccc42)C3)cc1` [Compound I-26]: the IC50 on recombinant human MGAT2 was 20.1 nM.

With `CCS(=O)(=O)CC(=O)Nc1c(-c2ccc(F)cn2)nn2c1C(=O)N[C@@]1(CCOc3cc(F)cc(F)c31)C2` [Compound I-118], the IC50 on recombinant human MGAT2 was 3.76 nM.

On to `CNS(=O)(=O)CC(=O)Nc1c(-c2ccc(C)cn2)nn2c1C(=O)N[C@@]1(CCc3cc(OCC(F)(F)F)ccc31)C2` [Compound I-45], for which, at recombinant human MGAT2, the IC50 was found to be 1.09 nM.

Turning to `CS(=O)(=O)CC(=O)Nc1c(-c2ccc(C(F)(F)F)cc2)nn2c1C(=O)N[C@@]1(CCc3cc(OCC(F)(F)F)ccc31)C2` [Compound I-25], on recombinant human MGAT2, the IC50 worked out at 1.33 nM.

`CS(=O)(=O)CC(=O)Nc1c(-c2cc(F)cc(F)c2)nn2c1C(=O)N[C@]1(CCc3cc(OCC(F)(F)F)ccc31)C2` [Compound I-98]: the half-maximal inhibitory concentration (IC50) at recombinant human MGAT2 was determined as 2.15 nM.

In the case of `CS(=O)(=O)CC(=O)Nc1c(-c2ccccn2)nn2c1C(=O)N[C@@]1(CCc3cc(OCC(F)(F)F)ccc31)C2` [Compound I-19], the IC50 at recombinant human MGAT2 was 5.19 nM.

As for `CCCCCc1nn2c(c1NC(=O)CS(C)(=O)=O)C(=O)N[C@@]1(CCc3cc(OCC(F)(F)F)ccc31)C2` [Compound I-47], the half-inhibitory concentration (IC50) on recombinant human MGAT2 amounted to 2.73 nM.

On to `Cc1cccc(-c2nn3c(c2NC(=O)CS(C)(=O)=O)C(=O)N[C@]2(CCc4cc(OCC(F)(F)F)ccc42)C3)c1` [Compound I-77], for which the half-maximal inhibitory concentration (IC50) on recombinant human MGAT2 is 2.54 nM.

As for `CS(=O)(=O)CC(=O)Nc1c(CCC2CC2)nn2c1C(=O)N[C@@]1(CCc3cc(F)cc(F)c31)C2` [Compound I-140], the IC50 on recombinant human MGAT2 is 11.1 nM.

For `CS(=O)(=O)CC(=O)Nc1c(-c2ccc(OC3CC3)cc2)nn2c1C(=O)N[C@]1(CCc3cc(OCC(F)(F)F)ccc31)C2` [Compound I-86], the IC50 on recombinant human MGAT2 was 131 nM.

For `CS(=O)(=O)CC(=O)Nc1c(-c2ccc(OC(F)F)cc2)nn2c1C(=O)N[C@]1(CCc3cc(OCC(F)(F)F)ccc31)C2` [Compound I-84], the IC50 at recombinant human MGAT2 was 2.51 nM.

As for `Cc1ccccc1-c1nn2c(c1NC(=O)CS(C)(=O)=O)C(=O)N[C@@]1(CCc3cc(OCC(F)(F)F)ccc31)C2` [Compound I-22], at recombinant human MGAT2, the 50% inhibitory concentration (IC50) was 93.5 nM.

Take `CS(=O)(=O)CC(=O)Nc1c(-c2ccc(C(F)F)cc2)nn2c1C(=O)N[C@]1(CCc3cc(OCC(F)(F)F)ccc31)C2` [Compound I-80]: the IC50 on recombinant human MGAT2 was determined as 1.28 nM.

Consider `CS(=O)(=O)CC(=O)Nc1c(-c2ccc(F)c(F)c2)nn2c1C(=O)N[C@@]1(CCOc3cc(OCC(F)(F)F)ccc31)C2` [Compound I-67], for which the concentration for half-maximal inhibition (IC50) at recombinant human MGAT2 came out at 0.671 nM.

With `CS(=O)(=O)CC(=O)Nc1c(CCC2CC2)nn2c1C(=O)N[C@@]1(CCOc3cc(F)cc(F)c31)C2` [Compound I-120], on recombinant human MGAT2, the IC50 amounted to 2.57 nM.

In the case of `CCCCCc1nn2c(c1NC(=O)CS(C)(=O)=O)C(=O)N[C@]1(CCc3cc(OCC(F)(F)F)ccc31)C2` [Compound I-95], the 50% inhibitory concentration (IC50) on recombinant human MGAT2 is 1.48 nM.

As to `CS(=O)(=O)CC(=O)Nc1c(-c2ccc(F)cc2)nn2c1C(=O)N[C@@]1(CCc3cc(F)cc(F)c31)C2` [Compound I-129], on recombinant human MGAT2, the IC50 amounted to 10 nM.

As to `Cc1ccc(-c2nn3c(c2NC(=O)CS(C)(=O)=O)C(=O)N[C@]2(CCc4cc(OCC(F)(F)F)ccc42)C3)cc1` [Compound I-76], the IC50 on recombinant human MGAT2 turned out to be 1.94 nM.

Take `Cc1ccc(-c2nn3c(c2NC(=O)c2ccno2)C(=O)N[C@]2(CCc4cc(OCC(F)(F)F)ccc42)C3)nc1` [Compound I-38]: at recombinant human MGAT2, the IC50 was found to be 5.31 nM.

`CS(=O)(=O)CC(=O)Nc1c(-c2cc(F)cc(F)c2)nn2c1C(=O)N[C@@]1(CCc3cc(OCC(F)(F)F)ccc31)C2` [Compound I-50]: the IC50 on recombinant human MGAT2 is 2.53 nM.

Take `CCOc1ccc2c(c1)CC[C@@]21Cn2nc(-c3ccc(F)cc3)c(NC(=O)CS(C)(=O)=O)c2C(=O)N1` [Compound I-68]: the IC50 on recombinant human MGAT2 was found to be 4.04 nM.

`CS(=O)(=O)CC(=O)Nc1c(-c2ccc(OC3CC3)cc2)nn2c1C(=O)N[C@@]1(CCc3cc(OCC(F)(F)F)ccc31)C2` [Compound I-30]: the IC50 on recombinant human MGAT2 was found to be 193 nM.

With `CS(=O)(=O)CC(=O)Nc1c(CCC2CC2)nn2c1C(=O)NC1(CN(c3ccc(C(F)(F)F)cc3)C1)C2` [Compound I-64], the IC50 on recombinant human MGAT2 is 1.26 nM.

For the compound `Cc1ccc(-c2nn3c(c2NC(=O)CS(C)(=O)=O)C(=O)N[C@@]2(CCc4cc(OCCCC(F)(F)F)ccc42)C3)nc1` [Compound I-74], the IC50 at recombinant human MGAT2 amounted to 1.06 nM.

Consider `CCOc1ccc2c(c1)CC[C@]21Cn2nc(CCC3CC3)c(NC(=O)CS(C)(=O)=O)c2C(=O)N1` [Compound I-103], for which, at recombinant human MGAT2, the IC50 turned out to be 7.03 nM.

For `CS(=O)(=O)CC(=O)Nc1c(-c2ccc(Cl)cn2)nn2c1C(=O)N[C@@]1(CCc3cc(OCC(F)(F)F)ccc31)C2` [Compound I-60], the half-maximal inhibitory concentration (IC50) on recombinant human MGAT2 was found to be 0.527 nM.

Take `CS(=O)(=O)CC(=O)Nc1c(-c2ccc(Cl)cn2)nn2c1C(=O)N[C@]1(CCc3cc(OCC(F)(F)F)ccc31)C2` [Compound I-59]: at recombinant human MGAT2, the IC50 is 0.48 nM.

Regarding `CS(=O)(=O)CC(=O)Nc1c(-c2ccc(C3CC3)cc2)nn2c1C(=O)N[C@@]1(CCc3cc(OCC(F)(F)F)ccc31)C2` [Compound I-29], at recombinant human MGAT2, the IC50 was 4.91 nM.

Consider `CS(=O)(=O)CC(=O)Nc1c(-c2ccc(F)c(F)c2)nn2c1C(=O)N[C@]1(CCc3cc(F)cc(F)c31)C2` [Compound I-148], for which the half-inhibitory concentration (IC50) on recombinant human MGAT2 came out at 10.6 nM.

For the compound `CS(=O)(=O)CC(=O)Nc1c(-c2ccc(F)c(F)c2)nn2c1C(=O)N[C@]1(CCOc3cc(OCC(F)(F)F)ccc31)C2` [Compound I-71], the half-maximal inhibitory concentration (IC50) at recombinant human MGAT2 was 1.8 nM.

In the case of `Cc1ccc(-c2nn3c(c2NC(=O)C2CS(=O)(=O)C2)C(=O)N[C@@]2(CCc4cc(OCC(F)(F)F)ccc42)C3)nc1` [Compound I-44], the IC50 on recombinant human MGAT2 was 13.4 nM.

For the origin of these results see patent US12227509B2, “Dihydropyrazolopyrazinone derivative having MGAT2 inhibitory activity” (Shionogi & Co., Ltd., priority 2019, dated 2025).
